For 7 compounds, IC50, EC50 and AC50 results are on record in ChEMBL document CHEMBL1201862, “PubChem BioAssay data set” (2004).

As usually defined, the AC50 is the concentration giving half of the maximal activity seen.

For test [1], the system named is HEK293. In words: cells. In kind it is functional, cell-based. The following applies: Homo sapiens.
For test [2], the target named is T1, Nuclear receptor subfamily 0 group B member 1 (Homo sapiens, UniProt P51843).
T1 sequence (P51843 whole entry): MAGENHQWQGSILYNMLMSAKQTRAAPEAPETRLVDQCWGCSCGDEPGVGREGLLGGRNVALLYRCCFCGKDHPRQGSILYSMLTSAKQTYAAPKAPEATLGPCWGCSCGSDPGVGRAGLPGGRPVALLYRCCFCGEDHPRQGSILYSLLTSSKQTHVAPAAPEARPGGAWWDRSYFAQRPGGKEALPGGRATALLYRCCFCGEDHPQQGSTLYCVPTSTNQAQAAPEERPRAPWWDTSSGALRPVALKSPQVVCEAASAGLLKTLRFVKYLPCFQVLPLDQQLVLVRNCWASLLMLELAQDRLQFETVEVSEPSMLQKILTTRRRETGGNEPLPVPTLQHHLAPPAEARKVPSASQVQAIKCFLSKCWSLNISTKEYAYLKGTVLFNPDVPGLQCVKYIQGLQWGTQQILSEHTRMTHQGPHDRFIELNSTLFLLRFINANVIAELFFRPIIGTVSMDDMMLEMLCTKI
Put plainly: Luminescence-based cell-based high throughput dose response assay for inhibitors of the orphan nuclear receptor subfamily 0, group B, member 1 (DAX1; NR0B1). [Related pubchem assays (depositor defined):AID504766, AID504790]. In kind it is functional.

Test [3] deals with Jurkat. Put plainly: SAR Analysis of small molecule inhibitors of T-cell specific antigen receptor-induced NF-kB activation in a Jurkat cell line using a luminescence assay - Set 2. [Related pubchem assays (depositor defined):AID435003, AID435012, AID465]. The following applies: Homo sapiens. In kind it is functional, cell-based.
Test [4] relates to HEK293. Put plainly: cytotoxicity in HEK293T NF-kB-Luc cells, SAR follow-up, cytotoxicity control for NF-kB activator project, cell-based, resazurin fluorescence (AID 493251). The format is functional. The following applies: Homo sapiens. A general note: Resazurin is reduced to fluorescent resorufin, in cell work by metabolically active cells.
In test [5] the test system is HEK293. In words: SAR Analysis of small molecule inhibitors of T-cell specific antigen receptor-induced NF-kB activation in a HEK-293T cell line using a luminescence assay - Set 2. [Related pubchem assays (depositor defined):AID435003, AID435012, AID489026]. The format is functional, cell-based. The following applies: Homo sapiens.
A further test concerns the target Beta-galactosidase (Escherichia coli, UniProt Q8VNN2). Put plainly: PubChem AID 485352. In kind it is functional.
Test [6] addresses T2, Corticotropin-releasing factor receptor 2/Corticotropin-releasing factor-binding protein (Homo sapiens, UniProt P24387+Q13324).
T2 sequence (Q13324 whole entry): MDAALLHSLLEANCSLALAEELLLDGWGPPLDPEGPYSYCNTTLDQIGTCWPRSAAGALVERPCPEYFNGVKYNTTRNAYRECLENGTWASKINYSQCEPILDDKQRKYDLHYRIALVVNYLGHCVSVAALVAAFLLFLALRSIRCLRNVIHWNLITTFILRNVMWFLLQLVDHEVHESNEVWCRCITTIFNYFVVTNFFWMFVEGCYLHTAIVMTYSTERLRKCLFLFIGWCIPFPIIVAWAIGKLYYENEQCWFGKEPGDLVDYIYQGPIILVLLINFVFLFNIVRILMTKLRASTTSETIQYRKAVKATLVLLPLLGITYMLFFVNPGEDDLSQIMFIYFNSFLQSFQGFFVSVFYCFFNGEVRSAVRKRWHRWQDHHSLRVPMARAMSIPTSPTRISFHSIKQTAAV
T2 sequence (P24387 whole entry): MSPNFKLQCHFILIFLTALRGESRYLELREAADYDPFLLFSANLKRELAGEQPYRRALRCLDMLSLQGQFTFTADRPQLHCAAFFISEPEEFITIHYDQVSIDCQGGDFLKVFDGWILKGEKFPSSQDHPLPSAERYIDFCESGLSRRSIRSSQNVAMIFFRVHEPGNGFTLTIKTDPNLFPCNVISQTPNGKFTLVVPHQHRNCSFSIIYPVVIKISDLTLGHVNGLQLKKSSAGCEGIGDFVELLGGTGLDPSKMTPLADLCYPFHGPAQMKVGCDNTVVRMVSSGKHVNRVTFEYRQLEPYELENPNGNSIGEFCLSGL
Put plainly: Dose Response confirmation of uHTS hits for small molecule antagonists of the CRF-binding protein and CRF-R2 receptor complex. The format is functional. The conditions noted are these: read-out: IC50_Mean.

The target of test [7] is Type-1 angiotensin II receptor (Homo sapiens, UniProt P30556). In words: AT1 receptor antagonists, dose response, selectivity assay for APJ receptor antagonist project, cell-based, uHTS hits (AID 463214).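 Also: antagonist potency against angiotensin II stimulated AT1 response.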 In kind it is functional.
Test [8] has as its target T2, Corticotropin-releasing factor receptor 2/Corticotropin-releasing factor-binding protein. In words: activators of CRF receptor 2 with binding protein – uHTS hits, confirmation (AID 602473). The format is functional. The conditions noted are these: read-out: EC50_Mean.
A short description of test [9]: MC4R antagonists, dose response, counter-screen for LGR2 antagonist project, cell-based, plate reader, cherry pick (AID 743444).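 Also: transfected HEK 293 cells stimulated with alpha-MSH peptide; potency of inhibitors of the alpha-MSH evoked signal.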 The format is functional. For orientation: The purpose of a counterscreen is to sort out artefacts and off-target activity.
Test [10] can be described thus: inhibitors of HIV Env-driven cell fusion, dose response, cherry-pick (AID 652057). In kind it is functional, cell-based.
Test [11] relates to Jurkat. Put plainly: antigen receptor-induced NF-kB inhibitors, dose response, Jurkat, luciferase reporter, luminescence, B- and T-cell (AID 489004).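 Also: NF-kB luciferase reporter Jurkat cells stimulated with PMA plus ionomycin.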 The format is functional, cell-based. The following applies: Homo sapiens. In general terms: Reporter assays use an easily measured gene product as a stand-in for the process of interest.
The nature of test [12]: LGR2 antagonists, dose response, cell-based, HEK293, CRE-luciferase reporter, cherry pick, set 2 (AID 743343).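 Also: transfected cells were stimulated with diluted bursicon conditioned medium after compound addition.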 In kind it is functional.
A further test concerns the target T3, Leucine aminopeptidase (Plasmodium falciparum 3D7, UniProt Q8IL11).
T3 sequence (Q8IL11 whole entry): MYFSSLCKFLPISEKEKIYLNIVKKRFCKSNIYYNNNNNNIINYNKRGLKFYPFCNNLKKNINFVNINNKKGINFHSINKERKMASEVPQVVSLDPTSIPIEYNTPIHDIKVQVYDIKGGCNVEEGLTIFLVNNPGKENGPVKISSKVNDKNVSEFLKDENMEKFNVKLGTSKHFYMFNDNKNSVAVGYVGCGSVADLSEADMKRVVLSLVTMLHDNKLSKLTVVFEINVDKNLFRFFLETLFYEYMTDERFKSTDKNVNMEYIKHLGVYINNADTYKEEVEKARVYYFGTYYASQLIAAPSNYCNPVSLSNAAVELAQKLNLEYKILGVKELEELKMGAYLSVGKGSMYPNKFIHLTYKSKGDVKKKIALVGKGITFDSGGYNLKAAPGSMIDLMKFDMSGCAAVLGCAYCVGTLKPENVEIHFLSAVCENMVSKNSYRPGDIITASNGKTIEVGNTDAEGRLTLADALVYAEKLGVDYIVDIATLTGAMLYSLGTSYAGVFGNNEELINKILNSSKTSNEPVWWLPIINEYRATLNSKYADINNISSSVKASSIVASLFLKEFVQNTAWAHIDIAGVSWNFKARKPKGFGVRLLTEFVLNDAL
Put plainly: P. falciparum M17LAP inhibitors, primary screen, biochemical, fluorogenic H-Leu-NHMec substrate, 1536-well (AID 1619). In kind it is functional.

Test [13] deals with T4, Microphthalmia-associated transcription factor (Homo sapiens, UniProt O75030).
T4 sequence (O75030 whole entry): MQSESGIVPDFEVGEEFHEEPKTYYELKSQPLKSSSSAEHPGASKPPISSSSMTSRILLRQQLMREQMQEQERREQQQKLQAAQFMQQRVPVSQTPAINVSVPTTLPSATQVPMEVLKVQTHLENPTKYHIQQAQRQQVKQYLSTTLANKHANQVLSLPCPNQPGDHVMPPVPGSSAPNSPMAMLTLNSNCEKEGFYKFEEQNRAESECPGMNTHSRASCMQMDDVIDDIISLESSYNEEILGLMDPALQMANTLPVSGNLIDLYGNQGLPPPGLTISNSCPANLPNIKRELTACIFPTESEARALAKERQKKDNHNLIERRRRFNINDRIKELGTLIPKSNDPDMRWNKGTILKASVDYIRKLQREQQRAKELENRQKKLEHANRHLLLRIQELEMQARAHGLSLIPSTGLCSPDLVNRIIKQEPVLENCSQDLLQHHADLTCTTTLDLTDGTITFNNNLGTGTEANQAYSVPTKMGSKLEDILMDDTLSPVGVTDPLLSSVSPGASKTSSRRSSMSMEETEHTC
Put plainly: TRPM1 promoter luciferase signal decrease, dose response, MITF inhibitor project, cell-based, SK-MEL-5, cherry-picked, set 3 (AID 493073).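 Also: SK-MEL-5 melanoma cells with luciferase driven by the MITF target TRPM1 promoter.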 In kind it is functional.

Test [14] can be described thus: cytotoxicity in HEK-293T NF-kB-Luc cells, dose response, cytotoxicity control for B/T-cell NF-kB inhibitor project, cell-based, uHTS hits (AID 489019).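 Also: IC50 reflects cytotoxicity as loss of cell viability.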 In kind it is functional.
In the next test the target is Procathepsin L (Homo sapiens, UniProt P07711). Put plainly: cathepsin L inhibitors, dose response, counter-screen for M1/M17 aminopeptidase inhibitor project, biochemical, QFRET, 1536-well (AID 2214).
For another test, the target named is T5, Aspartyl aminopeptidase (Plasmodium falciparum 3D7, UniProt Q8I2J3).
T5 sequence (Q8I2J3 whole entry): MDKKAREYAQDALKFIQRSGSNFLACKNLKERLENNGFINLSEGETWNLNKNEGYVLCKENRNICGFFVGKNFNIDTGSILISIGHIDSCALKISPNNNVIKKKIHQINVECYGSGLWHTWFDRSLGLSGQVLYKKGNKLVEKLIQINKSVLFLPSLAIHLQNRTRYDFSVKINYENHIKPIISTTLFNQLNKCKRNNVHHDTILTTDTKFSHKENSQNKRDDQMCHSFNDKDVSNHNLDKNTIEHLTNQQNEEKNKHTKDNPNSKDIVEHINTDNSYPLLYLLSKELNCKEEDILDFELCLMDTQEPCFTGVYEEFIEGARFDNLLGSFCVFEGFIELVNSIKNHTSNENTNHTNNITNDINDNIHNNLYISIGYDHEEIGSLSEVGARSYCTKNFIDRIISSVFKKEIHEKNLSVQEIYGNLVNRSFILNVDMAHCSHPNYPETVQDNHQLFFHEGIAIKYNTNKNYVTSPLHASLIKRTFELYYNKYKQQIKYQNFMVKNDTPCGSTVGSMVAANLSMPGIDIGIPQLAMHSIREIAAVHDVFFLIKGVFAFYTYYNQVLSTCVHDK
In words: Counterscreen for inhibitors of M1 and M17 aminopeptidases: QFRET-based biochemical high throughput dose response assay for inhibitors of the Plasmodium falciparum M18 Aspartyl Aminopeptidase (PFM18AAP). [Related PubChem assays: 1619 (Screening assay (M17LAP inhibitors).), 1445 (Screening assay (M1AAP inhibitors).)].

Test [15] can be described thus: inhibitors of clade B AD8 Env fusion, dose response, cell-based, cherry-pick (AID 652062).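 Also: luciferase signal from cell-cell fusion driven by HIV-1 clade B AD8 Env; potency is for inhibitors of fusion seen as a drop in luminescence.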 In kind it is functional.
Test [16] can be described thus: off-target signal loss in HeLa-CEM21 co-culture – HeLa F-luc CTL cells, cherry-picked, counter-screen for HIV-1 Env fusion inhibitor project, dose response (AID 652040).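 Also: potency for signal decrease marking cytotoxic or nonspecific inhibition.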 The format is functional, cell-based.
A short description of test [17]: A549 cell cytotoxicity, dose response, cytotoxicity control, plate reader, cherry-pick, antagonist series (AID 743412). In kind it is functional, cell-based.

Active and inactive are the calls of the source. Bounds are passed on as bounds.

Sequence of Type-1 angiotensin II receptor (P30556 whole entry): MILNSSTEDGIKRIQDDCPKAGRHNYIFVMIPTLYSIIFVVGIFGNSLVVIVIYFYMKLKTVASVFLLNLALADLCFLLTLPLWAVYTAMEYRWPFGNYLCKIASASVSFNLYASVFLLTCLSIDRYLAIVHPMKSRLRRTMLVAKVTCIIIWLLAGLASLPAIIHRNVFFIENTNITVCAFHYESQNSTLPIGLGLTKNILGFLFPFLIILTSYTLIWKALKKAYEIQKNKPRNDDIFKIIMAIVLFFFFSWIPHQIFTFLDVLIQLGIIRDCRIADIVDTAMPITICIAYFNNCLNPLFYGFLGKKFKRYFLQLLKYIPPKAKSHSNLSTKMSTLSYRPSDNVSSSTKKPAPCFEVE
Sequence of Beta-galactosidase (Q8VNN2 whole entry): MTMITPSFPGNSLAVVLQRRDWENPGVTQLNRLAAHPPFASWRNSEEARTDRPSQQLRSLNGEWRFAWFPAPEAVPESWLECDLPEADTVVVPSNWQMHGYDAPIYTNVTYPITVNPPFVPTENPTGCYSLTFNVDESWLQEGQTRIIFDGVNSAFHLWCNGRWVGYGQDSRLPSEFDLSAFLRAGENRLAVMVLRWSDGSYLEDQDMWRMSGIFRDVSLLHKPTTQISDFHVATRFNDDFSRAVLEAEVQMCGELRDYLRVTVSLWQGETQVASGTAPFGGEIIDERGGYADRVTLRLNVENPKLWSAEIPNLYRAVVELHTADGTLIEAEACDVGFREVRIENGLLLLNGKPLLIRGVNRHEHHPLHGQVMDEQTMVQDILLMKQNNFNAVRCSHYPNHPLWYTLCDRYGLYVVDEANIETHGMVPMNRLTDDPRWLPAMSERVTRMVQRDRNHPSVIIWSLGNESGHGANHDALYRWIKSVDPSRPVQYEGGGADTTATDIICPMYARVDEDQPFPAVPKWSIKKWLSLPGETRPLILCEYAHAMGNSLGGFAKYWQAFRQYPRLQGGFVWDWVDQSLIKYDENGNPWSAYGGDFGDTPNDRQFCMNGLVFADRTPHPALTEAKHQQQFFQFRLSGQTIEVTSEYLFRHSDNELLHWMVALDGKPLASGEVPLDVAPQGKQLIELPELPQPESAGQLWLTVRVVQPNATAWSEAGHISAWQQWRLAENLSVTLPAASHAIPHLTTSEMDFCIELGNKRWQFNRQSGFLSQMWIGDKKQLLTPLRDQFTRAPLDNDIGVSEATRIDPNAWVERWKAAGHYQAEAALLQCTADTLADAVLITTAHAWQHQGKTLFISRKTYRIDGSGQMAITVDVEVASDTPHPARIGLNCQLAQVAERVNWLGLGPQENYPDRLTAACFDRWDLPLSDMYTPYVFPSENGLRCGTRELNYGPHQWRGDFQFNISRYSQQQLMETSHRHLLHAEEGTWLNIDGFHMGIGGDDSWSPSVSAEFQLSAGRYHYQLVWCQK
Sequence of Procathepsin L (P07711 whole entry): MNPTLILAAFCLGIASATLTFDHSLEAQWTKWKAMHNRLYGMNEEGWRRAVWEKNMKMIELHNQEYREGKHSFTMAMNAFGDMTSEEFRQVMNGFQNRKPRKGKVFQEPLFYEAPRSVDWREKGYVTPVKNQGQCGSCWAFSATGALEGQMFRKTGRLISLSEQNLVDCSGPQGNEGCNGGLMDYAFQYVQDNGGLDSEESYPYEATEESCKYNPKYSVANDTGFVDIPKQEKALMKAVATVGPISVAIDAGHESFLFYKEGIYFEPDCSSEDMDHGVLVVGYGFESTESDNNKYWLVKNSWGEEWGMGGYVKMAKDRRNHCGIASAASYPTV

Take `Cc1ccc(NC(=O)c2ccccc2F)c(NC(=O)c2ccccc2F)c1`: the IC50 (in the test with HEK293 [1]; in test [2]) was > 67.5 µM (inactive) in each case.
With `COc1ccc(C(NC(=O)CC(C)C)c2ccc3cccnc3c2O)cc1OC` (stereo not drawn), the IC50 was 5.48 µM (active) in the test on Jurkat [3], 20.1 µM (inactive) in the test on HEK293 [4] and 6.6 µM (active) in the test on HEK293 [5].
`ON1C(c2ccc(Cl)cc2Cl)N(O)[C@H]2CCCC[C@H]21` (stereo partly drawn): the EC50 was > 40 µM (inactive) on Beta-galactosidase and > 53 µM (inactive) in test [8]. In addition, the IC50 in [6] was > 47.1 µM (inactive); in test [7] it was 17.7 µM (active).
For the compound `Cc1nn(-c2ccccc2)c(Cl)c1C(=O)N1CCN(C)CC1`, the IC50 (with HEK293 [1]; in test [2]) was > 67.5 µM (inactive) in each case.
As for `CC(C(=O)OCC(=O)c1cccc([N+](=O)[O-])c1)N1C(=O)C2C3CCC(C3)C2C1=O` (stereo not drawn), at Beta-galactosidase, the EC50 is > 40 µM (inactive). Further, in [7], the IC50 was 24.4 µM (not active).
For `O=C(Nc1ccc(Cl)cc1)Nc1cccc(C(=O)O)c1`, the AC50 is 1.88 µM (active) in [9]; 2.22 µM (active) in test [10]; 2.93 µM (active) in [12]; 3.79 µM (active) in test [13]; 2.51 µM (active) in test [15]; 2.95 µM (active) in test [16]. In addition, the AC50 in test [17] was > 52 µM (inactive). Also, the IC50 in the test on Jurkat [11] was 3.35 µM (active); at Leucine aminopeptidase, < 1 µM (active); in test [14], > 80 µM (inactive); at Procathepsin L, > 59.6 µM (not active); against Aspartyl aminopeptidase it was > 73.5 µM (not active).
For `CCC(=O)NC(c1ccc(N(C)C)cc1)c1ccc2cccnc2c1O` (stereo not drawn), the IC50 with Jurkat [3] is 2.67 µM (active); in the test on HEK293 [4], 18.4 µM (active); in the test on HEK293 [5], 7 µM (active).
